Biological target: L-type channel CaV1.2 (UniProt P15381)
Sequence (P15381 whole entry, looked up): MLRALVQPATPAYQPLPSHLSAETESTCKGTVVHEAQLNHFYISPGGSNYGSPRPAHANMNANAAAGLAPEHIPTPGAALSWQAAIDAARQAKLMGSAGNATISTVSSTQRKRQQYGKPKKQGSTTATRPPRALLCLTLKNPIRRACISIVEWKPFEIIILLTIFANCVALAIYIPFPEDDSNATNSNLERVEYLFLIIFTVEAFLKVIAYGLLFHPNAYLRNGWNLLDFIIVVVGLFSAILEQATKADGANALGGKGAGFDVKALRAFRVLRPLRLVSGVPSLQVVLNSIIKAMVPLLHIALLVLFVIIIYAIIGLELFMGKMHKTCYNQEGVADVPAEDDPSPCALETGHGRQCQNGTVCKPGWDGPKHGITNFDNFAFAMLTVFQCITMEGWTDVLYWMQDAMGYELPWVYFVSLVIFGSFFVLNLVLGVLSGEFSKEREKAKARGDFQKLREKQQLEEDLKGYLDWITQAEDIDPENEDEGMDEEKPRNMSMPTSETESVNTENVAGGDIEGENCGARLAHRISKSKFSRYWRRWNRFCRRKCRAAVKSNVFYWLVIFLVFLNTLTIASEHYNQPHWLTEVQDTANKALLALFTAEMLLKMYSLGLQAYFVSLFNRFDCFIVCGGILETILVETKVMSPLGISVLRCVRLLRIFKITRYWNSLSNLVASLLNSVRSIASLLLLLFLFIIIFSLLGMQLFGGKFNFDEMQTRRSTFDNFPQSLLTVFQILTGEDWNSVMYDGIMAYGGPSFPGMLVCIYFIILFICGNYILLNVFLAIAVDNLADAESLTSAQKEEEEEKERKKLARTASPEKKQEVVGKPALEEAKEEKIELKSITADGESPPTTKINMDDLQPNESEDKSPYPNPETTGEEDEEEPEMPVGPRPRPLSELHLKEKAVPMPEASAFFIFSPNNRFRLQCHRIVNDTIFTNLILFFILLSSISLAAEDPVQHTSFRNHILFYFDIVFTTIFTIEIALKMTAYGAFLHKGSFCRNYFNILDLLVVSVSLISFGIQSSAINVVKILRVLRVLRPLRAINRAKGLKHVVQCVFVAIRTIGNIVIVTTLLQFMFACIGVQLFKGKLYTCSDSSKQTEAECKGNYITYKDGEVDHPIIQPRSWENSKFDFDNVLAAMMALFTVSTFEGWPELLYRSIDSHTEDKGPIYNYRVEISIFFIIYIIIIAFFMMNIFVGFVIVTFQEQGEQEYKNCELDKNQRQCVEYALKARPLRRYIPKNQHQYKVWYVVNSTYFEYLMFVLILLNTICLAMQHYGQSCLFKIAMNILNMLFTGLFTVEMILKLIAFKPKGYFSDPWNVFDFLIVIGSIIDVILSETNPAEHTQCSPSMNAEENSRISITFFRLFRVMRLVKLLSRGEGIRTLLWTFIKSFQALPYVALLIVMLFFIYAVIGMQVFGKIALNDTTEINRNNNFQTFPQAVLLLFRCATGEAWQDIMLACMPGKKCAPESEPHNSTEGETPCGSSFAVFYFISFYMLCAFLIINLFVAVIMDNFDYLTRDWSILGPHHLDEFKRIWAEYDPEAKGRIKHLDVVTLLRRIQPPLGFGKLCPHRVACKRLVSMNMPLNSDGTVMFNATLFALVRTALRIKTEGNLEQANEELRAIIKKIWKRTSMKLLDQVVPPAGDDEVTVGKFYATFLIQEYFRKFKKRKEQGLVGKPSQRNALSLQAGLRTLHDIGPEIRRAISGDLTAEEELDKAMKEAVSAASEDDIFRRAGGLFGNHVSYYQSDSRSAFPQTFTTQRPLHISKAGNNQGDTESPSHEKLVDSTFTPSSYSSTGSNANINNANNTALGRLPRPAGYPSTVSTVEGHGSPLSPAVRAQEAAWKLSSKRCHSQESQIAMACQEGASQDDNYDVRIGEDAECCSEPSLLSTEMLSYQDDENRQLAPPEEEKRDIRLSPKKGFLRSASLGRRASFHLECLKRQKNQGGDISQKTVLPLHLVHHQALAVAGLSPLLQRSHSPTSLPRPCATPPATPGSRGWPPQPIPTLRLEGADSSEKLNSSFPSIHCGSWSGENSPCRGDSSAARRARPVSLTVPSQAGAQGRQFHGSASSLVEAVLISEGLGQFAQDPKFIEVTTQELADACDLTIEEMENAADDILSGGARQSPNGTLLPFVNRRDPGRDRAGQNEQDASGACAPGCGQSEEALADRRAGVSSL

## COc1ccc2cc1Oc1ccc(cc1)C[C@H]1c3cc(c(OC)cc3CCN1C)Oc1c(OC)c(OC)cc3c1[C@H](C2)N(C)CC3 [TETN, tetrandrine, reference compound]
  L-Activity IC50: 46.80 ± 10.84 µM

— patent US20190275027A1 (priority 2018, published 2019)
